Data taken from publication PMC11969438 (Inorganic Chemistry Frontiers, 2025).
Entries after “also recorded” stand apart in the source; their conditions may differ.

Columns and labels:
[1] = Hydrolytic stability in phosphate buffer, UHPLC; type: physicochemical; details: 1 mM, 150 mM PB pH 7.4, 20 °C, over 24 h
Experimental: (§1) PB (150 mM, pH 7.4) containing 1 mM platinum compound was incubated at 20 °C, with and without the addition of 10 eq. of AA. The reaction was monitored using a Thermo Scientific Dionex UltiMate 3000 UHPLC system with a Waters Acquity UPLC BEH C18 1.7 μm 3.0 × 50 mm column. Milli-Q water containing 0.1% formic acid and acetonitrile containing 0.1% formic acid were used as eluents. A gradient of 5–95% over 5 min was used with a flow of 0.6 mL min^−1. To evaluate the current state of the reaction, the peak area of the parental complex was used.

[2] = Reduction kinetics with 10 eq. L-ascorbic acid in phosphate buffer, UHPLC; type: physicochemical; details: 10 eq. AA, PB pH 7.4, 20 °C, after 24 h
Experimental: as §1

[3] = test system: HCT116/OxR cells; test: MTT-based cell viability assay, 72 h; parameters: species or system human
Experimental: (§2) Cell models were seeded (2–2.5 × 10^3 cells per well) in 96-well plates. After 24 h of recovery, the compounds were applied at the concentrations indicated in triplicate. Cell viability was determined after 72 h of continuous drug incubation using an MTT-based cell viability assay (EZ4U, Biomedica, Vienna, Austria) according to the manufacturer's recommendations. Absorbance was measured at 450 nm (vs. 620 nm as reference) using a multimode microplate reader (Tecan Spark, Zurich, Switzerland). Half-maximal inhibitory concentrations (IC50 values) were derived via interpolation from dose–response curves, modeled with the four-parameter logistic (4PL) nonlinear regression model in GraphPad Prism (La Jolla, CA, USA) from at least three independent experiments.

[4] = test system: THP1-Dual, HCT116, HCT116/OxR and CT-26 cells; test: MTT-based cell viability assay, 72 h, statements over all investigated cell lines; parameters: species or system human and murine
Experimental: as §2

[5] = test system: IRF pathway (STING-dependent); test: IRF-inducible luciferase reporter in THP1-Dual reporter cell model; type: cell-based, human; details: for IRF %EMAX of MSA-2: maximal response relative to MSA-2, highest tested dose 100 μM; for EC50: 24 h exposure, normalized to cell viability, oxaliplatin in combinations 5 μM
Source text: (§3) The THP1-Dual™ reporter cell model for simultaneously monitoring the activity of the IRF and NF-κB pathway contains an IRF-inducible luciferase reporter under the control of an ISG54 minimal promoter in conjunction with five interferon (IFN)-stimulated response elements, and an induced SEAP driven by an IFN-β minimal promoter fused to five copies of the NF-κB consensus transcriptional response element and three copies of the c-Rel binding site. The luciferase and SEAP reporter are measurable in the cell culture supernatant using QUANTI-Luc™ 4 Lucia/Gaussia (InvivoGen) and QUANTI-Blue™ (InvivoGen) solution, respectively. Cells were seeded at 1 × 10^5 cells per well in 96-well plates in RPMI-1640 medium, supplemented with 10% FCS, L-glutamine and Pen-Strep. After 2 h of recovery, the compounds were applied at the concentrations indicated in triplicate. The cell culture supernatant (SN) was collected after 24 h of drug incubation and secreted luciferase and SEAP reporter levels were measured according to the manufacturer's recommendations. In brief, for the detection of luciferase, 20 μL of SN were transferred into 96-well white opaque plates, and 30 μL of QUANTI-Luc™ reagent were added per well using an injector module in a multimode microplate reader (Tecan Spark, Zurich, Switzerland). Luminescence was recorded at a reading time of 0.1 second. For the detection of SEAP, 10 μL of SN were transferred to 96-well plates and 90 μL of QUANTI-Blue™ were added per well. Absorbance was measured at 620 nm. Half-maximal effective concentrations (EC50 values) were derived via interpolation from dose–response curves, modeled with the four-parameter logistic (4PL) nonlinear regression model in GraphPad Prism. For comparison, the maximal response rate of the prodrug was depicted in the percent of the maximal response rate achieved by SR-717 or MSA-2 (%EMAX) at the respective concentrations tested. Activatability, tested in co-incubation experiments with AA (50 μM), was expressed as the area under the curve (AUC) ratio of +AA vs. −AA-treated cells. The STING-dependency of the reporter induction was tested by co-administration of the STING inhibitor H-151 (10 μM), added to the cell culture medium 2 h before applying the investigated compounds. In addition to monitoring secreted reporter levels, the cell viability of the reporter cells was determined after 24 h of drug treatment by an MTT-based cell viability assay.

[6] = test system: NF-κB pathway (STING-dependent); test: NF-κB-inducible SEAP reporter in THP1-Dual reporter cell model; type: cell-based, human; details: for NF-κB %EMAX of MSA-2: maximal response relative to MSA-2; for EC50: 24 h exposure, normalized to cell viability, oxaliplatin in combinations 5 μM
Source text: as §3

[7] = test system: THP1-Dual cells; test: Cytokine and chemokine secretion in cell culture supernatant, Luminex; type: cell-based, human; details: 24 h
Experimental: Quantification of secreted protein targets in either cell culture SN or in plasma of treated animals was performed using a ProcartaPlex (96-well) multiplex assay panel (Thermo Fisher Scientific) in the xMAP detection platform (Luminex). For the in vitro detection of secreted proteins, THP1-Dual cells were seeded at 1 × 10^5 cells per well in 96-well plates in RPMI-1640 medium, supplemented with 10% FCS, L-glutamine and Pen-Strep. After 24 h of recovery, the compounds were applied at the concentrations indicated in triplicate.
After 24 h of drug incubation, the cell culture SN of technical triplicate was collected, pooled, centrifuged (400g, 10 min, 4 °C), transferred into a fresh tube, and stored at −20 °C.
Next, the ProcartaPlex (96-well) multiplex assay panel was performed according to the manufacturer's recommendations. In brief, the capture bead mix was incubated with test samples (undiluted SN or mouse plasma) or standard mix overnight. The SN of three independent experiments or the plasma of four animals per treatment group was loaded onto the multiplex assay plate. Next, biotinylated detection antibody mix and Streptavidin-PE were added to the plate. Following the recommended washing steps, the samples were incubated in a reading buffer and were measured using a Luminex xMAP platform (Bio-Plex MAGPIX Multiplex Reader; Bio-Rad Laboratories) and analyzed using xPONENT software.

[8] = test system: CT-26 tumors; test: Anticancer efficacy in vivo, syngeneic colorectal carcinoma; parameters: species or system BALB/c mice
Experimental: Tumor size was determined daily via manual caliper measurement. […] Animals were euthanized via cervical dislocation.

Structure (SMILES) | stability in PB [1] | complex remaining intact in presence of AA [2] | resistance factor (IC50 ratio HCT116/OxR vs parental HCT116) [3] | IC50 ratio prodrug vs free oxaliplatin, maximum over cell models [4] | IRF EC50 ratio fold MSA-2 ([5]; 24 h) | IRF %EMAX of MSA-2 ([5]; 24 h) | EC50 [5] | NF-κB EC50 ratio fold MSA-2 ([6]; 24 h) | NF-κB %EMAX of MSA-2 ([6]; 24 h) | EC50 [6] | secretion of cytokines and chemokines ([7]; prodrug 100 μM, MSA-2 25 μM) | tumor volume ([8]; peritumoral (p.t.) application, identical doses as i.v.) | impact of reducing conditions on IRF-induced reporter signal (AUC ratio +AA/−AA) ([5]; AA 50 μM) | IC50 ([3]; without AA) | activation of IRF signaling pathway ([5]; 24 h) | activation of NF-κB signaling pathway ([6]; 24 h) | TNF-α and IFN-γ secretion ([7]; oxaliplatin 5 μM) | tumor growth ([8]; i.v. twice a week for two weeks, equimolar to 9 mg kg^−1 oxaliplatin)
COCCOCCOCCOCCNC(=O)[O][Pt-2]12([O]C(=O)CCC(=O)c3cc4cc(OC)c(OC)cc4s3)([NH2+][C@@H]3CCCC[C@H]3[NH2+]1)[O]C(=O)C(=O)[O]2 [Ox-MSA-PEG-Ca, (OC-6-34)-[(1R,2R)-1,2-cyclohexanediamino]-oxalato-[4-(5,6-dimethoxybenzo[b]thiophen-2-yl)-4-oxobutylcarboxylato]-[3,6,9,12-tetraoxatridecan-1-amino]platinum(IV)] | very well comparable to Ox-MSA-PEG-Es | very well comparable to Ox-MSA-PEG-Es | 2.7 fold | ≤ 40 fold | 6.3 fold | 68% | 57.8 µM | 3.1 fold | 24% | 55.4 µM | induced distinct secretion of cytokines and chemokines | robust and significant decrease in the tumor volume; also recorded: distinct anticancer activity | – | – | – | – | – | –
COCCOCCOCCOCCC(=O)[O][Pt-2]12([O]C(=O)CCC(=O)c3cc4cc(OC)c(OC)cc4s3)([NH2+][C@@H]3CCCC[C@H]3[NH2+]1)[O]C(=O)C(=O)[O]2 [Ox-MSA-PEG-Es, (OC-6-44)-[(1R,2R)-1,2-cyclohexanediamino]-oxalato-[4-(5,6-dimethoxybenzo[b]thiophen-2-yl)-4-oxobutylcarboxylato]-[2,5,8,11-tetraoxatetradecanoato]platinum(IV)] | stable | ~80% | > 3.1 fold | ≤ 40 fold | 8.6 fold | 24% | 78.8 µM | > 5.7 fold | 15% | > 100 µM | – | – | significantly enhanced | – | – | – | – | –
O=C1[O][Pt]2([NH][C@@H]3CCCC[C@H]3[NH]2)[O]C1=O [oxaliplatin, reference compound] | – | – | – | – | – | – | – | – | – | – | – | – | – | 27.5 µM | did not induce observable activation | did not induce observable activation | activated predominantly by oxaliplatin | clearly reduced tumor growth
